Reference: ChEMBL document CHEMBL1201862, “PubChem BioAssay data set” (2004)
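Tested at 5 concentrations; 48 h exposure; 96-well plates; endpoints linearly interpolated, else capped at highest concentration. At the GI50, growth is halved.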 Calls of active or inactive are those of the source. Rule as the data show it: active = GI50 up to about 1.1 µM and inactive = higher.

Assays:
Test in all cases: growth of human tumour cells (NCI), 48 h
MOLT-4 = test system: MOLT-4
DU-145 = test system: DU-145
UACC-257 = test system: UACC-257
NCI/ADR-RES = test system: NCI/ADR-RES
SF-539 = test system: SF-539
U-251 = test system: U-251
HOP-62 = test system: HOP-62
KM12 = test system: KM12
NCI-H522 = test system: NCI-H522
HCT-15 = test system: HCT-15
SK-MEL-2 = test system: SK-MEL-2
NCI-H226 = test system: NCI-H226
SW-620 = test system: SW-620
T47D = test system: T47D
786-0 = test system: 786-0
HCT-116 = test system: HCT-116
RPMI-8226 = test system: RPMI-8226
SK-MEL-28 = test system: SK-MEL-28
A498 = test system: A498
CAKI-1 = test system: CAKI-1

Row | Compound | GI50 (MOLT-4) | GI50 (DU-145) | GI50 (UACC-257) | GI50 (NCI/ADR-RES) | GI50 (SF-539) | GI50 (U-251) | GI50 (HOP-62) | GI50 (KM12) | GI50 (NCI-H522) | GI50 (HCT-15) [µM] | GI50 (SK-MEL-2) | GI50 (NCI-H226) | GI50 (SW-620) | GI50 (T47D) | GI50 (786-0) | GI50 (HCT-116) | GI50 (RPMI-8226) | GI50 (SK-MEL-28) | GI50 (A498) | GI50 (CAKI-1)
1 | Nc1[nH]nc2ccccc12 | > 100 µM (inactive) | > 100 µM (inactive) | > 100 µM (inactive) | > 100 µM (inactive) | > 100 µM (inactive) | > 100 µM (inactive) | > 100 µM (inactive) | > 100 µM (inactive) | > 100 µM (inactive) | 54.7 | > 100 µM (inactive) | > 100 µM (inactive) | > 100 µM (inactive) | > 100 µM (inactive) | > 100 µM (inactive) | > 100 µM (inactive) | > 100 µM (inactive) | > 100 µM (inactive) | > 100 µM (inactive) | > 100 µM (inactive)
2 | COC(=O)c1c(O)ccc2c1c1c(n2-c2ccc(OC)cc2)C(=O)c2ccccc2C1=O | 8.28 µM (inactive) | 21.5 µM (inactive) | 64.9 µM (inactive) | 14.7 µM (inactive) | 15.3 µM (inactive) | 13 µM (inactive) | 20.2 µM (inactive) | 14.1 µM (inactive) | 15.1 µM (inactive) | 18.3 | 26.1 µM (inactive) | 25.5 µM (inactive) | 42.3 µM (inactive) | 11.7 µM (inactive) | 15.7 µM (inactive) | 16.9 µM (inactive) | 9.73 µM (inactive) | 29.9 µM (inactive) | > 100 µM (inactive) | 14.1 µM (inactive)
3 | CCOC(=O)C(Cc1ccc(O)cc1)Nc1nc(=O)c2c(=O)oc(Cl)cc2o1 (stereo not given) | 2.81 µM (inactive) | 17.3 µM (inactive) | 8 µM (inactive) | 20.9 µM (inactive) | 5.79 µM (inactive) | 7.19 µM (inactive) | 12.5 µM (inactive) | 10.2 µM (inactive) | 4.13 µM (inactive) | 4.33 | 12.5 µM (inactive) | 19.7 µM (inactive) | 3.18 µM (inactive) | 4.61 µM (inactive) | 9.12 µM (inactive) | 6.38 µM (inactive) | 2.67 µM (inactive) | 4.13 µM (inactive) | 18.2 µM (inactive) | 4.73 µM (inactive)
4 | CNC1Cc2c[nH]c3cccc(c23)C12C=C(C)C(=O)O2 (stereo not given) | > 100 µM (inactive) | > 100 µM (inactive) | > 100 µM (inactive) | > 100 µM (inactive) | > 100 µM (inactive) | > 100 µM (inactive) | > 100 µM (inactive) | > 100 µM (inactive) | > 100 µM (inactive) | > 100 | > 100 µM (inactive) | > 100 µM (inactive) | > 100 µM (inactive) | > 100 µM (inactive) | > 100 µM (inactive) | > 100 µM (inactive) | > 100 µM (inactive) | > 100 µM (inactive) | > 100 µM (inactive) | > 100 µM (inactive)
5 | NC1=Nc2ccccc2Sc2nnc(-c3ccc(Cl)cc3)n21 | 13.9 µM (inactive) | 49.2 µM (inactive) | > 100 µM (inactive) | 33.2 µM (inactive) | 26.2 µM (inactive) | 13.7 µM (inactive) | 23.7 µM (inactive) | 98.2 µM (inactive) | 8.18 µM (inactive) | 7.16 | > 100 µM (inactive) | > 100 µM (inactive) | 57.1 µM (inactive) | > 100 µM (inactive) | 24 µM (inactive) | 9.53 µM (inactive) | 87.3 µM (inactive) | > 100 µM (inactive) | 20.4 µM (inactive) | 72.4 µM (inactive)
6 | Cc1ccc(NNc2cc(=O)[nH]c(=O)[nH]2)cc1Cl | 4.98 µM (inactive) | 37 µM (inactive) | 17.5 µM (inactive) | 95.3 µM (inactive) | 19.5 µM (inactive) | 16.4 µM (inactive) | 71.9 µM (inactive) | 27.3 µM (inactive) | 16.5 µM (inactive) | 10.6 | 16.5 µM (inactive) | 56.9 µM (inactive) | 14.4 µM (inactive) | 9.95 µM (inactive) | 14.6 µM (inactive) | 14.9 µM (inactive) | 10.9 µM (inactive) | 17.2 µM (inactive) | > 100 µM (inactive) | 14.4 µM (inactive)
7 | C=CCCON(C(=O)OC(C)(C)C)C(C)(C)C | > 100 µM (inactive) | > 100 µM (inactive) | > 100 µM (inactive) | > 100 µM (inactive) | > 100 µM (inactive) | > 100 µM (inactive) | > 100 µM (inactive) | > 100 µM (inactive) | > 100 µM (inactive) | > 100 | > 100 µM (inactive) | > 100 µM (inactive) | > 100 µM (inactive) | > 100 µM (inactive) | > 100 µM (inactive) | > 100 µM (inactive) | > 100 µM (inactive) | > 100 µM (inactive) | > 100 µM (inactive) | > 100 µM (inactive)
